Assay results taken from patent publication US9006221B2, “Method of modulating ship activity” (H. Lee Moffitt Cancer Center and Reserach Institute, Inc., priority 2008, dated 2015).

Key:
SHIP1 = target: T1, SHIP1 (Mus musculus, UniProt Q9ES52); experiment: Malachite Green phosphate release assay, SHIP1; assay type: biochemical; conditions: at 1 mM
T1 construct: The asterisk in lanes 1 and 3 indicates the ˜145 kD full-length SHIP protein; His tag (C); made in house; host or cells: E. coli Rosetta-Gami 2 (DE3) pLys
T1 sequence (Q9ES52 1-1191): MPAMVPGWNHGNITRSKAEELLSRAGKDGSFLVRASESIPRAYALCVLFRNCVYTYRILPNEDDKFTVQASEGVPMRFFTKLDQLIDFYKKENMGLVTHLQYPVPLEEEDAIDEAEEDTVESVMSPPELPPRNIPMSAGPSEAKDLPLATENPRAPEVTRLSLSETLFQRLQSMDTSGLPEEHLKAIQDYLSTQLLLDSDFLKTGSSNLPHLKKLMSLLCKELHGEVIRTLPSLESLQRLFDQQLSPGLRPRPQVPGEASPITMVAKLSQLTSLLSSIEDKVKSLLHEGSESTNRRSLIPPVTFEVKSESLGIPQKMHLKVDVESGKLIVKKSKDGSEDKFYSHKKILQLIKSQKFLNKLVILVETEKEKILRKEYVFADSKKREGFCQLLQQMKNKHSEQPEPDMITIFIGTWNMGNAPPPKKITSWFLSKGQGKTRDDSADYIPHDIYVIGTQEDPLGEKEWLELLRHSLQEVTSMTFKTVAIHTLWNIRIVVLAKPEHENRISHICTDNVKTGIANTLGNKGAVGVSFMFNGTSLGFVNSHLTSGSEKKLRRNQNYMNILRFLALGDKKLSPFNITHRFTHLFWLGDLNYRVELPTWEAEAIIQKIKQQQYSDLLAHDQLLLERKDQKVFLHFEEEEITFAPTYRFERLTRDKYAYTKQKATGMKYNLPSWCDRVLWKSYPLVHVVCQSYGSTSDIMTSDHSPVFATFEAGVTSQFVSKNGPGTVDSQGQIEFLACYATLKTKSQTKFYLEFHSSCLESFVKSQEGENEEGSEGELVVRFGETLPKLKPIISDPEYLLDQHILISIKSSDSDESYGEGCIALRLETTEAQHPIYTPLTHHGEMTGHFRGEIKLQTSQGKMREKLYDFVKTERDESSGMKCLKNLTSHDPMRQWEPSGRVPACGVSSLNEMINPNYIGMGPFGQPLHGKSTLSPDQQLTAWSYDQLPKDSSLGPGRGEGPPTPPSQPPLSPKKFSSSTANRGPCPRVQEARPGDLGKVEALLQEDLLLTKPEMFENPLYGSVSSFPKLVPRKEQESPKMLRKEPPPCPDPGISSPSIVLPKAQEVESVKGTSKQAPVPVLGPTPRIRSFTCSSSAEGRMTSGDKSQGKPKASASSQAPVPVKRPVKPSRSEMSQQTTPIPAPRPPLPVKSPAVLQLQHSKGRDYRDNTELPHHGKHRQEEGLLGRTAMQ

MG63 cells = experiment: MTT cell viability assay, MG63; assay type: cell-based; conditions: MG63, lacks SHIP1 expression, 36 hours
Method: (A) SHIP1 expression in KG1 and MG63 cells was determined by Western blotting (top). Membranes were reprobed with antibodies against b-actin to confirm equal loading (lower panel). One representative blot of 2 individual experiments is shown. (B) KG1 and MG63 cells were plated in duplicate in 96 well plates, and treated for 36 hours with increasing concentrations of the 3α-aminocholestane. Cell viability was assessed by MTT assay. Results represent the mean of three individual experiments. (C) KG1 cells were treated with increasing concentrations of 3α-aminocholestane for 36 hours and hallmarks of apoptosis were identified in cell lysates by Western Blot analysis. […] (D) KG1 cells were treated with increasing concentrations of 3α-aminocholestane, and the percentage of AnnexinV and PI positive cells was determined by FACS analysis. […]
Cell viability assay: Cells were treated in duplicate for 36 hours with increasing concentrations of 3α-aminocholestane or vehicle. […] Formed crystals were dissolved in dimethyl sulfoxide and optical density (OD) was measured at 570 nm. The OD of compound treated cells was divided by the OD of their vehicle control, and the viability was expressed as a percentage of untreated cells. Results are expressed as mean±SEM of three individual experiments.

[1] = system: human multiple myeloma cell lines OPM and RPMI; experiment: Apoptosis (annexin positive cells) in multiple myeloma cell lines; assay type: cell-based; conditions: increasing concentrations
From the text: (A) SHIP1 expression in human multiple myeloma (MM) cell lines as presented in the western blot analysis. SHIP is expressed in the human multiple myeloma cell lines U266, RPMI8226 and OPM2. The expression in the MM cell lines is shown relative to that observed in MG63 and HS-5 cell lines. MG63 is an osteosarcoma cell line, and HS-5 is a human bone marrow stroma cell line. […] Actin is provided as a control. (B) Results of MTT dye assays of MM cell lines. […] RUO is “relative units optical”. (C) Apoptosis in OPM and RPMI cell lines at increasing concentrations of 3α-aminocholestane.

CC(C)CCC[C@@H](C)[C@H]1CC[C@H]2[C@@H]3CC[C@H]4C[C@H](N)CC[C@]4(C)[C@H]3CC[C@]12C [NSC23922, (3R,5S,8R,9S,10S,13R,14S,17R)-10,13-dimethyl-17-[(2R)-6-methylheptan-2-yl]-2,3,4,5,6,7,8,9,11,12,14,15,16,17-tetradecahydro-1H-cyclopenta[a]phenanthren-3-amine]
inhibition of SHIP1 (SHIP1): full inhibition
growth and survival of cells (MTT viability) (MG63 cells): not in cells that lacks SHIP1 expression
apoptosis (percent annexin positive cells) [1]: apoptosis occurs
